Non-standard residues stand in square brackets, D forms with d. Residues, ends and D or L forms follow the SMILES beside them. *: point of attachment. 1Nal = N[C@@H](Cc1cccc2ccccc12)C(=O)O; Sta = CC(C)C[C@H](N)[C@@H](O)CC(=O)O; Cbz = O=C(OCc1ccccc1)*; NHNH2 = NN*
Q: Which melting point does the source give for `COC(=O)c1ccc(C(=O)N2CCCc3ccccc32)cc1` here?
A: 72 to 74 °C

Q: With `Cc1ccc(CC2CCN(CCOc3ccc4c(c3)=NC(=S)N=4)CC2)cc1` as the molecule, how does the melting point read?
A: 271 to 273 °C

Q: Which melting point does the source give for `CC(C)n1c(=Nc2ccccc2)sc2ncccc2c1=O` here?
A: 85 to 86 °C

Q: With `CCOC1=NS(=O)(=O)C(S(C)(=O)=O)=C1N` as the molecule, how does the melting point read?
A: 214 to 217 °C

Q: With `C[C@@H](n1cnc2cc(N3CCN(c4ccc([N+](=O)[O-])cc4)CC3)ccc2c1=O)[C@](O)(Cn1cncn1)c1ccc(F)cc1F` as the molecule, how does the melting point read?
A: 287 to 289 °C

Q: Which melting point does the source give for `COc1ccc2c(Cl)nc(Cl)nc2c1OC` here?
A: 153 to 155 °C

Q: With `CS(=O)(=O)c1ccc(-c2cc(CCCO[N+](=O)[O-])nn2CC2CCCCC2)cc1` as the molecule, how does the melting point read?
A: 76 to 77 °C

Q: For `CC1(C)CC(O)CC(C)(C)N1C#N`, which melting point is on record?
A: 96 to 98 °C

Q: With `Cn1c(CCSN2CCC3(CC2)CC(=O)c2cc(NS(C)(=O)=O)ccc2O3)cc(=O)n(C)c1=O` as the molecule, how does the melting point read?
A: 198 to 201 °C

Q: Which melting point does the source give for `CC1(C)C=CC=CC1NCC1=NCCN1` (stereo unspecified) here?
A: 80 to 82 °C

Q: Which melting point does the source give for `O=Cc1c2ccccc2c(Cl)c2cc(Cl)ccc12` here?
A: 174 to 175 °C

Q: Which melting point does the source give for `N=C(N)N1CCc2[nH]cnc2C1` here?
A: 310 °C

Q: For `Cc1c(NC(=O)c2ccc(OCC3CCOC3)cc2)ccc2cc(CNC3CCCC3)cnc12` (stereo unspecified), which melting point is on record?
A: 148 to 149 °C

Q: For `CCOC(=O)c1nsc(Br)c1O`, which melting point is on record?
A: 44 to 47 °C

Q: For `CCOC(=O)c1ccc(NC(=O)[C@H](CO)NS(=O)(=O)c2ccc(Cl)cc2)cc1`, which melting point is on record?
A: 157 to 160 °C

Q: Which melting point does the source give for `Oc1ccc(C(=C(Cl)c2ccccc2)c2ccccc2)cc1` here?
A: 127 to 129 °C

Q: With `O=C(O)[C@H](Cc1cccc(OC(F)(F)C(F)F)c1)[C@@H](O)c1ccnc(F)c1` (racemic) as the molecule, how does the melting point read?
A: 134 to 135 °C

Q: Which melting point does the source give for `CSc1ncc(C(=O)NCCO)c(Nc2ccc3[nH]ncc3c2)n1` here?
A: > 270 °C

Q: With `Nc1ncnc2c1nnn2C1C=CCC1` (stereo unspecified) as the molecule, how does the melting point read?
A: 207 to 208 °C

Q: With `COc1cc2c(cc1OC)-c1[nH]c3ccc([N+](=O)[O-])cc3c1CC(=O)N2` as the molecule, how does the melting point read?
A: > 330 °C

Q: For `Nc1nc(O)cc(CCl)n1`, which melting point is on record?
A: 195 to 197 °C

Q: For `CCCCCCCCCCCCCCCCCCOc1cn(-c2ccc(OCc3ccccc3)cc2)c(CNCCCN(C)C)cc1=O`, which melting point is on record?
A: 103 to 109 °C

Q: With `O=C(c1cccnc1)c1cccc(NC(=O)c2ccn3c2CSC3c2cccnc2)c1` (stereo unspecified) as the molecule, how does the melting point read?
A: 160 °C

Q: With `CCC(=O)N(C)c1cccc(-c2ccnc3c(C(=O)c4ccco4)cnn23)c1` as the molecule, how does the melting point read?
A: 153 to 155 °C

Q: For `O=C1Nc2cccc(-c3ccc(Cl)cc3Cl)c2/C1=C/c1ccc[nH]1`, which melting point is on record?
A: 185 to 187 °C

Q: For `COC(=O)Nc1cc(F)c(C#N)cc1F`, which melting point is on record?
A: 129 °C

Q: With `CC(C)(C)OC(=O)Nc1cc(OC(C)(C)C)c(-c2ccccc2F)cc1N` as the molecule, how does the melting point read?
A: 130 °C

Q: For `CC(C)C[C@H](NC(=O)[C@H](Cc1c[nH]cn1)NC(=O)[C@H](Cc1cccc2ccccc12)NC(=O)OCc1ccccc1)[C@@H](O)CC(=O)NN` (Cbz-[1Nal]-His-[Sta]-NHNH2), which melting point is on record?
A: 120 to 127 °C

Q: Which melting point does the source give for `Cc1cccc(-c2sc3ccc(C(F)(F)F)cc3c2O)c1` here?
A: 124 to 126 °C

Q: Which melting point does the source give for `CN(C(=O)OC(C)(C)C)c1cc(Sc2ccc(O)cc2)ccc1N` here?
A: 62 to 67 °C

Q: With `CCOC(=O)C(CC=Cc1ccccc1)(NC(C)=O)C(=O)OCC` as the molecule, how does the melting point read?
A: 70 to 75 °C

Q: Which melting point does the source give for `CCn1c(=O)c(-n2c(C(N)=O)nnc2-c2ccc(C#N)cc2)c(C)n(-c2cccc(C(F)(F)F)c2)c1=O` here?
A: 256 °C

Q: Which melting point does the source give for `CC(=O)c1ccc(N2CCCCC2)c(S(N)(=O)=O)c1` here?
A: 130 to 132 °C

Q: With `COC(CNC(=O)c1ccc(N2CCN(C(=O)c3ccccc3C(F)(F)F)CC2)nn1)C(C)(C)C` (stereo unspecified) as the molecule, how does the melting point read?
A: 65 to 68 °C

Q: Which melting point does the source give for `CCn1c2ccccc2c2cc(C=C(C#N)c3ccc(C(F)(F)F)cc3)ccc21` here?
A: 164 to 165 °C

Q: Which melting point does the source give for `COc1ccnc(C(C)Sc2nc3cc(OC(F)F)c(C)cc3[nH]2)c1` (stereo unspecified) here?
A: 183 to 184 °C

Q: For `O=C1OC(CCCCN2CCN(c3ncccn3)CC2)CN1c1ccccc1` (stereo unspecified), which melting point is on record?
A: 94 to 96 °C

Q: For `Cc1noc(NS(=O)(=O)c2ccccc2F)c1Br`, which melting point is on record?
A: 87 to 89 °C

Q: With `CCCNCCCC(c1ccccc1)c1ccccc1` as the molecule, how does the melting point read?
A: 94 to 96 °C

Q: With `NCCc1cn(C(c2ccccc2)(c2ccccc2)c2ccccc2)cn1` as the molecule, how does the melting point read?
A: 111 to 113 °C

Q: With `COc1cc(C(=CC#N)c2ccc(OC)c(OC)c2)ccc1N` as the molecule, how does the melting point read?
A: 104 to 106 °C

Q: For `Cc1cc(C)c(-c2cn(C)c3nc(N)[nH]c(=O)c23)c(C)c1`, which melting point is on record?
A: 184 to 186 °C

Q: With `N#CCC(=O)NC(C(=O)OC1CCCCC1)c1ccccc1` (stereo unspecified) as the molecule, how does the melting point read?
A: 114 to 116 °C

Q: Which melting point does the source give for `O=C1C[C@@H]2CCC(c3ccccc3)=C[C@@H]2O1` (relative stereo) here?
A: 90 to 92 °C

Q: Which melting point does the source give for `COc1cc(C)c(C=CC(C)=CC=CC(C)=CC(=O)O)c(C)c1` here?
A: 207 to 208 °C

Q: With `N#CS/C=C\C(=O)Oc1ccccc1` as the molecule, how does the melting point read?
A: 79 to 83 °C

Q: With `CCOC(=O)COc1cc2c(c(Cl)c1Cl)C(=O)C(CC)=C2` as the molecule, how does the melting point read?
A: 141 to 143 °C

Q: For `O=[N+]([O-])c1ccc(-c2cnc(Nc3ccc(Oc4ccccc4)cc3)s2)cc1`, which melting point is on record?
A: 191 to 196 °C

Q: With `CCOC(=O)C1(NC(=O)Nc2cccc(C)c2)N=C(c2ccc(Cl)cc2)c2ccccc2-n2c(C)nnc21` (stereo unspecified) as the molecule, how does the melting point read?
A: 168 to 172 °C

Q: With `CC(=O)N1CCC(C(=NN)c2ccc(F)cc2F)CC1` as the molecule, how does the melting point read?
A: 139 to 142 °C

Q: With `CSC(Nc1ccc(NC(=O)OC(C)(C)C)cc1)=C(C#N)C#N` as the molecule, how does the melting point read?
A: 190 °C

Q: Which melting point does the source give for `CC(=O)NCCO[C@H]1COc2ccc3cnn(C[C@@H](C)O)c3c2C1` here?
A: 165 to 166 °C

Q: For `Clc1ccc(-c2cc(C3CC3)n3nccc3n2)cc1`, which melting point is on record?
A: 137 to 138 °C

Q: With `C1=C(c2cccnc2)CCC(N2CCN(c3ccccn3)CC2)C1` (stereo unspecified) as the molecule, how does the melting point read?
A: 146 to 148 °C

Q: With `CC(C)N(c1ccc(C(=O)Oc2ccccc2)c(Cl)c1)S(=O)(=O)c1ccccc1` as the molecule, how does the melting point read?
A: 120 °C

Q: Which melting point does the source give for `COc1ccccc1CNc1nc(Cl)nc2c1ncn2[C@@H]1SC[C@@H](O)[C@H]1O` here?
A: 188 °C

Q: For `N#Cc1c(-c2ccc(Cl)c(Cl)c2)[nH]c(C(F)(F)F)c1C(F)(F)F`, which melting point is on record?
A: 205 to 208 °C

Q: For `CN(N)c1cnn(-c2cccc(C(F)(F)F)c2)c(=O)c1`, which melting point is on record?
A: 125 to 127 °C

Q: With `Oc1ccc(N=C2SCCS2)cc1` as the molecule, how does the melting point read?
A: 204 to 208 °C

Q: Which melting point does the source give for `COc1ccc(-c2cc(=S)n(Cc3ccc(Cl)cc3Cl)nc2-c2ccc(OC)cc2)cc1` here?
A: 170 °C

Q: With `CCCN(CCC)C(=O)Cn1c(-c2ccc(F)cc2)nc2cccnc21` as the molecule, how does the melting point read?
A: 135 to 136 °C

Q: With `CN(C)CCOc1ccc(C(=C(c2ccccc2)C(F)(F)F)c2ccc(O)cc2)cc1` as the molecule, how does the melting point read?
A: 149 to 155 °C

Q: For `O=C(O)CCCOc1cccc(CCCCCCOc2ccc3c(c2CCCc2ccccc2)CCCC3=O)c1CCC(=O)O`, which melting point is on record?
A: 89 to 91 °C

Q: Which melting point does the source give for `CNC(=O)N1CC(Oc2ccc(F)cc2Cl)C1` here?
A: 139 to 141 °C

Q: For `Cc1nc2c(N)nc3ccccc3c2n1CCCCNS(=O)(=O)c1ccccc1`, which melting point is on record?
A: 215 to 216 °C

Q: With `CCCCCCC[C@H]1O[C@H]1C(=O)O` as the molecule, how does the melting point read?
A: 53 to 55 °C

Q: With `N#Cc1c(N)nc2ccc(N3CCN(Cc4ccccc4)CC3)cc2c1N=Cc1ccccc1` as the molecule, how does the melting point read?
A: 202 °C

Q: With `Nc1ccc(Cc2ccc(C3(c4ccc(Cc5ccc(N)cc5)cc4)CCCCC3)cc2)cc1` as the molecule, how does the melting point read?
A: 154 to 156 °C

Q: For `CCNC(=O)c1ccnc([N+](=O)[O-])c1`, which melting point is on record?
A: 65 to 67 °C

Q: With `CCc1nc(C)cn1-c1ccc2nc(NC(=O)c3ccc(C(C)(C)C)cc3)cn2n1` as the molecule, how does the melting point read?
A: 220 to 221 °C

Q: For `COCCOCc1c(F)cccc1-c1ccc2nc(-c3ccc(Cl)cc3)cn2c1`, which melting point is on record?
A: 104 to 105 °C
